Measurements as given in the kinase profiling compilation of Christmann-Franck et al. (2016).

Tests used:
Experiment in all cases: KINOMEscan competition binding
TRPM6 (human) = TRPM6 (human) (UniProt Q9BX84); details: compound 1.0 µM
CDK14 (human) = CDK14 (human) (UniProt O94921); details: compound 1.0 µM
[1] = tested on: PIK3CA (human), P42336 [M1043I]; details: compound 1.0 µM
MAP3K6 (human) = MAP3K6 (human) (UniProt O95382); details: compound 1.0 µM
RPS6KA5 KD1 (human) = RPS6KA5 KD1 (human) (UniProt O75582); details: compound 1.0 µM
Sequence of RPS6KA5 KD1 (human) (O75582 whole entry, looked up): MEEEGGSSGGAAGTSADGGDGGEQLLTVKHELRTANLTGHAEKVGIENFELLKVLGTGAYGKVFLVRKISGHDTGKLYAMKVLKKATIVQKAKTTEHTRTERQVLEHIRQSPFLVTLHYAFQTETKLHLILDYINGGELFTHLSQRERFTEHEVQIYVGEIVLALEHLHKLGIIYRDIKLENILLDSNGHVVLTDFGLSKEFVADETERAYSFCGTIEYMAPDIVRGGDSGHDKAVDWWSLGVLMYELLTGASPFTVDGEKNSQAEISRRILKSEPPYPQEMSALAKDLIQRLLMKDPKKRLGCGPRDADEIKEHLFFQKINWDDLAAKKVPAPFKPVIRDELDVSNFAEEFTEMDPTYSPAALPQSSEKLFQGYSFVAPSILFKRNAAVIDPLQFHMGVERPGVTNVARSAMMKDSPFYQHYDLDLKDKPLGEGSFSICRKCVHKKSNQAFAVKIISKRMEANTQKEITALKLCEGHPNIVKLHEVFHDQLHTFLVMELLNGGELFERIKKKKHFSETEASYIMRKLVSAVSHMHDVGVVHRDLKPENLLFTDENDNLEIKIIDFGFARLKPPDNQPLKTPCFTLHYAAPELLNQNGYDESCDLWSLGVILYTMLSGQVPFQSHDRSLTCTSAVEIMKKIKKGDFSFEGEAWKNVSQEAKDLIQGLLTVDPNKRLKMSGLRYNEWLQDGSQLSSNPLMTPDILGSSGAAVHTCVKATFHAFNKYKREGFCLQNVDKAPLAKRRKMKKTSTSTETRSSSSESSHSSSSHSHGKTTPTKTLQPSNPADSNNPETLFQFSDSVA

CHEK1 (human) = CHEK1 (human) (UniProt O14757); details: compound 1.0 µM
STK17B (human) = STK17B (human) (UniProt O94768); details: compound 1.0 µM
Sequence of STK17B (human) (O94768 whole entry, looked up): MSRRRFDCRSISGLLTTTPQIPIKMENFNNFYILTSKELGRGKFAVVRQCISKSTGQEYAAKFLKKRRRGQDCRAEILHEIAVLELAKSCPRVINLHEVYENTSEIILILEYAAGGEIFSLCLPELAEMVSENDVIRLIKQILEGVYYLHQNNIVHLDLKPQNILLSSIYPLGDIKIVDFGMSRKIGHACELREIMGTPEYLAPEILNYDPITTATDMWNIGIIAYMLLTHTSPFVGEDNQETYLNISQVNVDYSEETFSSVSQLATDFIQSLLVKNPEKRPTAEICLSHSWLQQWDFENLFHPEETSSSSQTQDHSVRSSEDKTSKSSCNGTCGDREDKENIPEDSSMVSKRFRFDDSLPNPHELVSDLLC

[2] = tested on: ABL1 (human), P00519 [E255K]; details: compound 1.0 µM
GSK3A (human) = GSK3A (human) (UniProt P49840); details: compound 1.0 µM
CAMK4 (human) = CAMK4 (human) (UniProt Q16566); details: compound 1.0 µM
IRAK3 (human) = IRAK3 (human) (UniProt Q9Y616); details: compound 1.0 µM
Sequence of IRAK3 (human) (Q9Y616 whole entry, looked up): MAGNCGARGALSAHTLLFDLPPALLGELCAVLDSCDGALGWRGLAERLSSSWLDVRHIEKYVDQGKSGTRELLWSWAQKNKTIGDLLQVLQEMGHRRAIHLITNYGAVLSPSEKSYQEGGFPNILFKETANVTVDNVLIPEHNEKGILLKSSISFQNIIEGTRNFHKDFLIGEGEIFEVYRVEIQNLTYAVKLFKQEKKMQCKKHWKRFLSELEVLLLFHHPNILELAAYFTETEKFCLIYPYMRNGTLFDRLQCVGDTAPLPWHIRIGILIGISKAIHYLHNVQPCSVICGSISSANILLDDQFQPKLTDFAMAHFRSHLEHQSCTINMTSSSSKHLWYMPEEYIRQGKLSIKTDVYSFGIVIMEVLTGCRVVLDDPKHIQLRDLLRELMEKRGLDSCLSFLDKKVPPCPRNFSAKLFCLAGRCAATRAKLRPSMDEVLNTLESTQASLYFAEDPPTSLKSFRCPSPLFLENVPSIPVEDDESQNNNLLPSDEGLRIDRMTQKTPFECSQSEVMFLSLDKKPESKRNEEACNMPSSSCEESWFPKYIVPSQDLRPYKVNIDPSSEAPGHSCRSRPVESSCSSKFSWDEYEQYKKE

[3] = tested on: EGFR (human), P00533 [P753S; 747-752 del]; details: compound 1.0 µM
MAP3K7 (human) = MAP3K7 (human) (UniProt O43318); details: compound 1.0 µM
CASK (human) = CASK (human) (UniProt O14936); details: compound 1.0 µM
DYRK1A (human) = DYRK1A (human) (UniProt Q13627); details: compound 1.0 µM
STK4 (human) = STK4 (human) (UniProt Q13043); details: compound 1.0 µM
Sequence of STK4 (human) (Q13043 whole entry, looked up): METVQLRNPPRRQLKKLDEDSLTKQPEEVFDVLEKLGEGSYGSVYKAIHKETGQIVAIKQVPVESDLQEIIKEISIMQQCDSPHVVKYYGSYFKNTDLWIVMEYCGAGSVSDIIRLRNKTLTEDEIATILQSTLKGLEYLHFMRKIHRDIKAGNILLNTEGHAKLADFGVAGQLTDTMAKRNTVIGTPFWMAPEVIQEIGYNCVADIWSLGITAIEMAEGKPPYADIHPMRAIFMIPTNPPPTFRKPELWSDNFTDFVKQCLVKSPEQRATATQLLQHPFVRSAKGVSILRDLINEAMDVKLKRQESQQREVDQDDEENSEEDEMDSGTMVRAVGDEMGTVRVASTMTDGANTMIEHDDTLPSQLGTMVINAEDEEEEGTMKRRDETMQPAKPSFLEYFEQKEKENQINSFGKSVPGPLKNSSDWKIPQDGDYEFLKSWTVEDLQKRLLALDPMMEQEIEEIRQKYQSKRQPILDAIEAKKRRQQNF

SNRK (human) = SNRK (human) (UniProt Q9NRH2); details: compound 1.0 µM
CDK15 (human) = CDK15 (human) (UniProt Q96Q40); details: compound 1.0 µM
MAP3K1 (human) = MAP3K1 (human) (UniProt Q13233); details: compound 1.0 µM
STK33 (human) = STK33 (human) (UniProt Q9BYT3); details: compound 1.0 µM
Sequence of STK33 (human) (Q9BYT3 whole entry, looked up): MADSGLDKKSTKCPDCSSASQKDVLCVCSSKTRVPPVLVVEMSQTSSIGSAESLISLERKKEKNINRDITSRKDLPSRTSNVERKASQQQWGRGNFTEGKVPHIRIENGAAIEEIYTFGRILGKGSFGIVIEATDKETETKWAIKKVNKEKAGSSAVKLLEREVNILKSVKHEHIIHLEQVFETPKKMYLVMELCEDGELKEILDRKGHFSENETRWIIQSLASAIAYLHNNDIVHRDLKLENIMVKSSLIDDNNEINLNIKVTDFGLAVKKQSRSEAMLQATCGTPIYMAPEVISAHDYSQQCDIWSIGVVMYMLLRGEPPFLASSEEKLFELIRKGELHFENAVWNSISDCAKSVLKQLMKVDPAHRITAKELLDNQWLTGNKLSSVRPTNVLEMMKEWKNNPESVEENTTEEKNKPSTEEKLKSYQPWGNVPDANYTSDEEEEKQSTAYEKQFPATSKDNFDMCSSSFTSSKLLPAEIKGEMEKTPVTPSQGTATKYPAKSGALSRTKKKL

PAK2 (human) = PAK2 (human) (UniProt Q13177); details: compound 1.0 µM
ULK3 (human) = ULK3 (human) (UniProt Q6PHR2); details: compound 1.0 µM
IGF1R (human) = IGF1R (human) (UniProt P08069); details: compound 1.0 µM
MLTK (human) = MLTK (human) (UniProt Q9NYL2); details: compound 1.0 µM
Sequence of MLTK (human) (Q9NYL2 whole entry, looked up): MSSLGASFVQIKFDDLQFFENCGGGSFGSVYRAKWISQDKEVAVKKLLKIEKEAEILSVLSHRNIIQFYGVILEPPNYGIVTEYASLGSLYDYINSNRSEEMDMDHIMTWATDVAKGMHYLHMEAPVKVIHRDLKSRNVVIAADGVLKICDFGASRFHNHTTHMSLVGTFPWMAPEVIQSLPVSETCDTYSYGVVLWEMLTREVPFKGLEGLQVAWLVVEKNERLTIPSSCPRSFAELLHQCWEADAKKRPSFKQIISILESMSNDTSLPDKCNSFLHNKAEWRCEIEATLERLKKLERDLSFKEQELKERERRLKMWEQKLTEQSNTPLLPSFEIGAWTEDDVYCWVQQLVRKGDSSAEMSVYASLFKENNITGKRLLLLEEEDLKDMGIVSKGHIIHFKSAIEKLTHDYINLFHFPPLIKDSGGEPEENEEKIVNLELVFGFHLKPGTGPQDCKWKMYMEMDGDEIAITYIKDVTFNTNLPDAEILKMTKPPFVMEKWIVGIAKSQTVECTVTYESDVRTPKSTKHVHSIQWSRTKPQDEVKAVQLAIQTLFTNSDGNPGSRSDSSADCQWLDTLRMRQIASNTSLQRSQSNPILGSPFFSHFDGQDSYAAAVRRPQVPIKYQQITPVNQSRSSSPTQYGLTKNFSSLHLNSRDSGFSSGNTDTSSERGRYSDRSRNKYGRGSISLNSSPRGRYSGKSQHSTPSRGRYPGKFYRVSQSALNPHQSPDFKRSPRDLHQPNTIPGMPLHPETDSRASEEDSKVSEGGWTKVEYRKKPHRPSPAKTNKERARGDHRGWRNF

TTK (human) = TTK (human) (UniProt P33981); details: compound 1.0 µM
PRKCE (human) = PRKCE (human) (UniProt Q02156); details: compound 1.0 µM
EPHA3 (human) = EPHA3 (human) (UniProt P29320); details: compound 1.0 µM
PLK1 (human) = PLK1 (human) (UniProt P53350); details: compound 1.0 µM
RIOK2 (human) = RIOK2 (human) (UniProt Q9BVS4); details: for kinase still bound, per cent of control: compound 1.0 µM
Sequence of RIOK2 (human) (Q9BVS4 whole entry, looked up): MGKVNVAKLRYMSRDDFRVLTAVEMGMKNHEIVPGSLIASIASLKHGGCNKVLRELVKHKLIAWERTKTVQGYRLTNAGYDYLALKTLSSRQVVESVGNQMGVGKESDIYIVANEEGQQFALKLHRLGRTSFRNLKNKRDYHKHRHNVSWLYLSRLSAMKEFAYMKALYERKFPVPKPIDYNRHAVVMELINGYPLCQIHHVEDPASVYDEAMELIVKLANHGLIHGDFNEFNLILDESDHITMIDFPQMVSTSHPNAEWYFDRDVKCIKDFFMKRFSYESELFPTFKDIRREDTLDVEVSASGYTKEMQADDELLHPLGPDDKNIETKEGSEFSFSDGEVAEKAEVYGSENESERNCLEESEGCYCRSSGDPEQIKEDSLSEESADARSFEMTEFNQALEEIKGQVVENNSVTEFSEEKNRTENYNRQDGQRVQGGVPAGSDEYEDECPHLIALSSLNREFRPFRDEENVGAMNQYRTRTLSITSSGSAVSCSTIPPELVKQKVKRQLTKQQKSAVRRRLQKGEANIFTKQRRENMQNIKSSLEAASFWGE

PAK3 (human) = PAK3 (human) (UniProt O75914); details: compound 1.0 µM
ADCK3 (human) = ADCK3 (human) (UniProt Q8NI60); details: compound 1.0 µM
RIOK3 (human) = RIOK3 (human) (UniProt O14730); details: compound 1.0 µM
TESK1 (human) = TESK1 (human) (UniProt Q15569); details: compound 1.0 µM
EIF2AK2 (human) = EIF2AK2 (human) (UniProt P19525); details: compound 1.0 µM
MARK1 (human) = MARK1 (human) (UniProt Q9P0L2); details: compound 1.0 µM
DCLK3 (human) = DCLK3 (human) (UniProt Q9C098); details: compound 1.0 µM
[4] = tested on: PIK3CA (human), P42336 [I800L]; details: compound 1.0 µM
AKT2 (human) = AKT2 (human) (UniProt P31751); details: compound 1.0 µM
FGFR2 (human) = FGFR2 (human) (UniProt P21802); details: compound 1.0 µM
Sequence of FGFR2 (human) (P21802 whole entry, looked up): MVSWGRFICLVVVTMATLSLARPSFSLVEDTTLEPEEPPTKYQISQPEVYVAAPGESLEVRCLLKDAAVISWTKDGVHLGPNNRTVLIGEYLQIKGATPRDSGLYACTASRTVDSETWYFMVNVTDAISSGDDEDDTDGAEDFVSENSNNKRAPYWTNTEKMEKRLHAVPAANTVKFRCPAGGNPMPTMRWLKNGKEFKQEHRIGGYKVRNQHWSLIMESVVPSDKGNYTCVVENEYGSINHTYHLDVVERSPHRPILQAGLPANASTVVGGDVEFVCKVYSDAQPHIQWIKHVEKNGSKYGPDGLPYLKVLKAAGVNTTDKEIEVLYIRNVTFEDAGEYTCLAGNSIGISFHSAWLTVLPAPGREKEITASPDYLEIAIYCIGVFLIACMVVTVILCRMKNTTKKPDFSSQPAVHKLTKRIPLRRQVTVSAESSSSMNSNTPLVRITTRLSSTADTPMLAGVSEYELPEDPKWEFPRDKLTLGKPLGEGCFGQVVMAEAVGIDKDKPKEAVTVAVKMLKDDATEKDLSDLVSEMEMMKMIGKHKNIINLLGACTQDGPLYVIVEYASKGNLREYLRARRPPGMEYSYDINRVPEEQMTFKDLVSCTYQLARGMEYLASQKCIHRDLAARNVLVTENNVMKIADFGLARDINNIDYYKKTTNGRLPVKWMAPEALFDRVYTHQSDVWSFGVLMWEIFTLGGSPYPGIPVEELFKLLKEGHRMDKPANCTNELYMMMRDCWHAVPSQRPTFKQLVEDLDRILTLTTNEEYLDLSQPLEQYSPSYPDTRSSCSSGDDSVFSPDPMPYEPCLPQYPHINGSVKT

MAPK15 (human) = MAPK15 (human) (UniProt Q8TD08); details: compound 1.0 µM
[5] = tested on: PIK3CA (human), P42336 [H1047L]; details: compound 1.0 µM
CaMK1 (human) = CaMK1 (human) (UniProt Q14012); details: compound 1.0 µM

SMILES: Cc1cc(NC(=O)c2cccc(NC(=O)/C=C/CN(C)C)c2)ccc1Nc1nccc(-c2cccnc2)n1
- kinase still bound, per cent of control (TRPM6 (human)): 98%
- kinase still bound, per cent of control (CDK14 (human)): 88%
- kinase still bound, per cent of control [1]: 94%
- kinase still bound, per cent of control (MAP3K6 (human)): 92%
- kinase still bound, per cent of control (RPS6KA5 KD1 (human)): 100%
- kinase still bound, per cent of control (CHEK1 (human)): 98%
- kinase still bound, per cent of control (STK17B (human)): 72%
- kinase still bound, per cent of control [2]: 100%
- kinase still bound, per cent of control (GSK3A (human)): 92%
- kinase still bound, per cent of control (CAMK4 (human)): 100%
- kinase still bound, per cent of control (IRAK3 (human)): 85%
- kinase still bound, per cent of control [3]: 81%
- kinase still bound, per cent of control (MAP3K7 (human)): 61%
- kinase still bound, per cent of control (CASK (human)): 100%
- kinase still bound, per cent of control (DYRK1A (human)): 81%
- kinase still bound, per cent of control (STK4 (human)): 100%
- kinase still bound, per cent of control (SNRK (human)): 100%
- kinase still bound, per cent of control (CDK15 (human)): 100%
- kinase still bound, per cent of control (MAP3K1 (human)): 100%
- kinase still bound, per cent of control (STK33 (human)): 100%
- kinase still bound, per cent of control (PAK2 (human)): 100%
- kinase still bound, per cent of control (ULK3 (human)): 40%
- kinase still bound, per cent of control (IGF1R (human)): 93%
- kinase still bound, per cent of control (MLTK (human)): 100%
- kinase still bound, per cent of control (TTK (human)): 46%
- kinase still bound, per cent of control (PRKCE (human)): 81%
- kinase still bound, per cent of control (EPHA3 (human)): 67%
- kinase still bound, per cent of control (PLK1 (human)): 100%
- Kd (RIOK2 (human)): 120 nM
- kinase still bound, per cent of control (RIOK2 (human)): 10%
- kinase still bound, per cent of control (PAK3 (human)): 100%
- kinase still bound, per cent of control (ADCK3 (human)): 100%
- kinase still bound, per cent of control (RIOK3 (human)): 72%
- kinase still bound, per cent of control (TESK1 (human)): 100%
- kinase still bound, per cent of control (EIF2AK2 (human)): 82%
- kinase still bound, per cent of control (MARK1 (human)): 100%
- kinase still bound, per cent of control (DCLK3 (human)): 100%
- kinase still bound, per cent of control [4]: 88%
- kinase still bound, per cent of control (AKT2 (human)): 100%
- kinase still bound, per cent of control (FGFR2 (human)): 79%
- kinase still bound, per cent of control (MAPK15 (human)): 100%
- kinase still bound, per cent of control [5]: 100%
- kinase still bound, per cent of control (CaMK1 (human)): 81%

SMILES: CN(C)C/C=C/C(=O)Nc1cccc(C(=O)Nc2ccc(Nc3nccc(-c4cccnc4)n3)cc2)c1
- kinase still bound, per cent of control (TRPM6 (human)): 100%
- kinase still bound, per cent of control (CDK14 (human)): 53%
- kinase still bound, per cent of control [1]: 74%
- kinase still bound, per cent of control (MAP3K6 (human)): 100%
- kinase still bound, per cent of control (RPS6KA5 KD1 (human)): 100%
- kinase still bound, per cent of control (CHEK1 (human)): 100%
- kinase still bound, per cent of control (STK17B (human)): 24%
- kinase still bound, per cent of control [2]: 43%
- kinase still bound, per cent of control (GSK3A (human)): 65%
- kinase still bound, per cent of control (CAMK4 (human)): 100%
- kinase still bound, per cent of control (IRAK3 (human)): 20%
- kinase still bound, per cent of control [3]: 99%
- kinase still bound, per cent of control (MAP3K7 (human)): 34%
- kinase still bound, per cent of control (CASK (human)): 100%
- kinase still bound, per cent of control (DYRK1A (human)): 37%
- kinase still bound, per cent of control (STK4 (human)): 45%
- kinase still bound, per cent of control (SNRK (human)): 90%
- kinase still bound, per cent of control (CDK15 (human)): 96%
- kinase still bound, per cent of control (MAP3K1 (human)): 85%
- kinase still bound, per cent of control (STK33 (human)): 93%
- kinase still bound, per cent of control (PAK2 (human)): 87%
- kinase still bound, per cent of control (ULK3 (human)): 7%
- kinase still bound, per cent of control (IGF1R (human)): 100%
- kinase still bound, per cent of control (MLTK (human)): 46%
- kinase still bound, per cent of control (TTK (human)): 97%
- kinase still bound, per cent of control (PRKCE (human)): 61%
- kinase still bound, per cent of control (EPHA3 (human)): 80%
- kinase still bound, per cent of control (PLK1 (human)): 100%
- Kd (RIOK2 (human)): 30 nM
- kinase still bound, per cent of control (RIOK2 (human)): 2.2%
- kinase still bound, per cent of control (PAK3 (human)): 100%
- kinase still bound, per cent of control (ADCK3 (human)): 58%
- kinase still bound, per cent of control (RIOK3 (human)): 8.3%
- kinase still bound, per cent of control (TESK1 (human)): 88%
- kinase still bound, per cent of control (EIF2AK2 (human)): 53%
- kinase still bound, per cent of control (MARK1 (human)): 68%
- kinase still bound, per cent of control (DCLK3 (human)): 100%
- kinase still bound, per cent of control [4]: 98%
- kinase still bound, per cent of control (AKT2 (human)): 96%
- kinase still bound, per cent of control (FGFR2 (human)): 67%
- kinase still bound, per cent of control (MAPK15 (human)): 7.1%
- kinase still bound, per cent of control [5]: 100%
- kinase still bound, per cent of control (CaMK1 (human)): 100%
